Source: patent publication US20260022347A1, “TREATMENT AGENT FOR LUNG ADENOCARCINOMAS” (KEIO UNIVERSITY, priority 2022, published 2026)
Entries after “also recorded” stand apart in the source; their conditions may differ.

Assays:
[1] = system: NKX2-1-negative lung adenocarcinoma organoid strains (KOR189, KOR134); experiment: Growth of NKX2-1-negative lung adenocarcinoma organoids cultured with C59 (organoid area, micrographs); format: cell-based, human
From the text: Porcupine (PORCN) is an acyl transferase localized to the endoplasmic reticulum which performs palmitoylation of Wnt protein. In this experimental example, the therapeutic effect of NKX2-1-negative lung adenocarcinoma was examined using C59 (CAS No. 1243243-89-1), a Porcupine inhibitor.
In addition, the number in the upper left corner of each image indicates the percentage of an area occupied by organoids cultured under each condition when an area occupied by organoids cultured in the absence of Wnt-3A is 1.

[2] = system: Wnt-dependent (NKX2-1 negative) lung adenocarcinoma organoids, KOR80 and KOR97; experiment: Tumor area of GFP-labeled lung adenocarcinoma organoids transplanted under the renal capsule of immunodeficient mice; format: in vivo; settings: 50 mg/kg C59 orally twice a day, 10 days after transplantation and day 30 to 40; kidneys excised day 40; versus vehicle
From the text: C59 (CAS No. 1243243-89-1) was used to examine the therapeutic effect of NKX2-1-negative lung adenocarcinoma in vivo.
FIG. 11 is a schematic view showing a schedule of this experiment. GFP-labeled lung adenocarcinoma organoids were transplanted under the renal capsule of immunodeficient mice. As the lung adenocarcinoma organoids, Wnt-dependent (NKX2-1 negative) lung adenocarcinoma organoids, KOR80 and KOR97, and Wnt-independent (NKX2-1-positive) lung adenocarcinoma organoids, KOR20 and KOR98, were used.
For 10 days after transplantation and from day 30 to day 40 after transplantation, 50 mg/kg of C59 or vehicle was administered orally twice a day. Subsequently, the mice were euthanized on day 40 after transplantation, and their kidneys were excised and observed. The tumor area was measured as the area of a GFP-positive region.
In addition, “vehicle” indicates the result of a control given vehicle, and “C59” indicates the result obtained by administering C59. In addition, in FIG. 13, “*” indicates a significant difference at p<0.05, “**” indicates a significant difference at p<0.01, and “N.S.” indicates no significant difference.

[3] = system: Wnt target genes LGR5 and AXIN2; experiment: Quantitative RT-PCR of Wnt target genes LGR5 and AXIN2 in organoids cultured with C59; format: cell-based, human
From the text: In FIG. 10, the relative values of the expression levels of each gene with respect to the expression level of the GAPDH gene are shown as relative values, with the expression level in the absence of Wnt-3A (−Wnt) set to 1.

[4] = presence of Wnt-3A and C59 (+Wnt+C59)

Cc1cc(-c2ccc(CC(=O)Nc3ccc(-c4cccnc4)cc3)cc2)ccn1 [C59]
growth of NKX2-1-negative lung adenocarcinoma organoids ([1]; absence of Wnt-3A, presence of C59 (-Wnt+C59), KOR189, KOR134): growth inhibition; also recorded: inhibited the growth
growth of NKX2-1-negative lung adenocarcinoma organoids after addition of exogenous Wnt-3A to C59 treatment [1, 4]: counteracted the effect of the C59 treatment
tumor area (GFP-positive region) [2]: significantly reduced the tumor area
expression levels of Wnt target genes (LGR5, AXIN2) ([3]; -Wnt+C59 relative to -Wnt, normalised to GAPDH, KOR189, KOR134, KOR97): reduced the expression levels
expression levels of Wnt target genes after addition of exogenous Wnt-3A to C59 treatment [3, 4]: restoring the expression levels
